Experimental data taken from PMC10540216, “Activity Guided Azide-methyllysine Photo-trapping for Substrate Profiling of Lysine Demethylases” (Journal of the American Chemical Society, 2023).
Entries after “also recorded” stand apart in the source; their conditions may differ. Where no end group is shown, it is not given here. [ ]: non-standard residue; d: D form. Lys(Me3) = C[N+](C)(C)CCCC[C@H](N)C(=O)O

Key:
SUV39H2 = experiment: Methylation of eIF4A3-K374 peptides by KMT (MALDI-TOF MS); assay type: biochemical; conditions: 20 µM KMT, 10 µM peptide, 200 µM SAM
Description: (§1) 7. Expression and purification of lysine methyltransferases and Chromodomains […]
(§2) 16. Methylation activity of wild type KMTs on eIF4A3-K374me0/1/2 peptides 20 µM lysine methyltransferase, 10 µM eIF4A3-me0/1/2 peptide and 200 µM SAM were incubated at room temperature for 1-2 hours in 50 mM Tris pH 8.0. Reaction was stopped by storing the microcentrifuge tubes on ice. After mixing, 0.8 µL of sample and 0.8 µL of α-cyano-4-hydroxycinnamic acid (CHCA) (dissolved in 50:50 0.1% TFA and acetonitrile) were combined on a MALDI plate. Samples were ionized using reflectron positive mode on Bruker Daltonics UltrafleXtreme MALDI TOF with detection carried out from 700-3500 m/z. Bruker Flex Analysis software was used to analyze the MALDI-TOF MS spectra.
(§3) 17. Isothermal Titration Calorimetry […]
(§4) The microsyringe (40µL) was loaded with 1.1 mM peptide and injected into the cell (200µL), occupied by CBX1 chromodomain at a concentration of 110 µM. Data was fitted to a single binding site model using Microcal ITC200 Software with Origin Lab 7.
(§5) KDM4A mammalian expression plasmid in CMV vector was purchased from Addgene (plasmid #24180). Full-length G9a in pCDNA3 vector was kind from Prof. Minkui Luo at the Memorial Sloan-Kettering Cancer Center. HEK293T/17 cells (ATCC) were grown in a T25 containing Delbucco’s Modified Eagle Medium (DMEM) (Corning) with 10% FBS at 37 °C, 5% CO2, and 95% relative humidity. When cells reached 80% confluency, 5 µg of plasmid and 10 µg

G9a = experiment: as above; assay type: biochemical; conditions: 20 µM KMT, 10 µM peptide, 200 µM SAM
Description: as §1, §2, §3, §4, §5

CBX1 chromodomain [1] = biological target: T1, CBX1 chromodomain (Homo sapiens, UniProt P83916); experiment: Isothermal titration calorimetry of peptide binding to CBX1 chromodomain; conditions: ITC, T 288.15 K in Table S6
T1 construct: occupied by CBX1 chromodomain at a concentration of 110 µM; 6xHis (N); made in house

DOT1L = experiment: Methylation of eIF4A3-K374 peptides by KMT (MALDI-TOF MS); assay type: biochemical; conditions: 20 µM KMT, 10 µM peptide, 200 µM SAM
Description: (§6) expression constructs in pET28a or pET 28-MHL were obtained from Addgene: CAMKMT […]
(§7) (Addgene #60091) and METTL21C (Addgene #60100). Plasmids were transformed into E. Coli BL21 (DE3) competent cells (Invitrogen) using appropriate resistant antibiotic. A single colony was picked up and grown overnight at 37 °C in 10 mL of Luria-Bertani (LB) broth in the presence of 50 μg/mL kanamycin and 35 μg/mL chloramphenicol. The culture was diluted 100-fold and allowed to grow at 37 °C to an optical density (OD600) of a minimum of 0.8, and protein expression was induced overnight at 17 °C with 0.5 to 1.0 mM IPTG in an Innova 44® Incubator shaker (New Brunswick Scientific). Proteins were purified as follows: harvested cells were resuspended in 15 mL lysis buffer (50 mM Tris-HCl pH 8.0, 200 mM NaCl, 5 mM β-mercaptoethanol, 10% glycerol, 25 mM imidazole, Lysozyme, DNase, and Roche protease inhibitor cocktail). The cells were lysed by pulsed sonication (Qsonica-Q700), and centrifuged at 13,000 rpm for 40 min at 4°C. The soluble extracts were subject to Ni-NTA agarose resin (Thermo) according to manufacturer’s instructions. After passing 20 volumes of washing buffer (50 mM Tris-HCl pH 8.0, 200 mM NaCl, 5 mM β-mercaptoethanol, 10% glycerol, and 25 mM imidazole), proteins were eluted with a buffer containing 50 mM Tris-HCl pH 8.0, 200 mM NaCl, 5 mM β-mercaptoethanol, 10% glycerol, and 400 mM imidazole. Proteins were further purified by size exclusion chromatography (Superdex-200) using AKTA pure FPLC system (GE healthcare) with buffer containing 50 mM Tris-HCl pH 8.0, 200 mM NaCl, and 10% glycerol. Purified proteins were concentrated using Pierce™ Protein Concentrator PES, 10K MWCO, 5-20 mL (Thermo Scientific™ 88527). The protein concentration was determined using Bradford assay kit (BioRad Laboratories) with BSA as a standard. The concentrated proteins were stored at -80 °C before use. […]
as §2, §3
(§8) The microsyringe (40µL) was loaded with 1.1 mM peptide and injected into the cell (200µL), occupied by CBX1 chromodomain at a concentration of 110 µM. […]

METTL20 = experiment: as above; assay type: biochemical; conditions: 20 µM KMT, 10 µM peptide, 200 µM SAM
Description: as §6, §7, §2, §3, §8

METTL21A = experiment: as above; assay type: biochemical; conditions: 20 µM KMT, 10 µM peptide, 200 µM SAM
Description: as §6, §7, §2, §3, §8

METTL21C = experiment: as above; assay type: biochemical; conditions: 20 µM KMT, 10 µM peptide, 200 µM SAM
Description: as §6, §7, §2, §3, §8

CBX1 chromodomain [2] = biological target: T1, CBX1 chromodomain; experiment: Isothermal titration calorimetry of peptide binding to CBX1 chromodomain; conditions: ITC, 25 °C, 1.1 mM peptide into 110 µM CBX1 chromodomain, 50mM Tris pH 8.0
Description: as §1
17. Isothermal Titration Calorimetry
Isothermal titration calorimetry (ITC) was performed with an ITC200 instrument (MicroCal, Malvern). Experiments were conducted at 25 °C while stirring at 750 rpm. Buffers of protein […]
were matched to 200mM NaCl, 10% glycerol, and 50mM Tris pH 8.0. Each titration was performed as follows: one initial injection of 0.4 µL for 0.8 seconds, followed by 19 injections of 2.0 µL for 4 seconds, with ≥2 mins between each injection. The initial injection was discarded prior to data analysis. The microsyringe (40µL) was loaded with 1.1 mM peptide and injected into the cell (200µL), occupied by CBX1 chromodomain at a concentration of 110 µM. Data was fitted to a single binding site model using Microcal ITC200 Software with Origin Lab 7.
as §5

KDM4E = experiment: Demethylase activity of wild type KDM4E on peptide substrates (MALDI-TOF MS); assay type: biochemical; conditions: 10 µM enzyme, 10 µM peptide, 1 mM 2OG, 50 mM Tris pH 8, 37°C, three hours
Description: 200 FPLC column. The proteins were concentrated via centrifugation. Protein concentration was determined using Bradford assay.
The N-terminal 6xHis-tagged KDM4E construct for bacterial expression was purchased from Addgene (#38990) and expressed following reported method.8 The wild type KDM4E plasmid was transformed into E. Coli BL21 (DE3) competent cells (Invitrogen) using pNIC28-Bsa4 kanamycin-resistant vector. A single colony was grown overnight at 37 °C in 10 mL of Luria-Bertani (LB) broth in the presence of 50 μg/mL kanamycin and 35 μg/mL chloramphenicol. The culture was diluted 100-fold and allowed to grow at 37 °C to an optical density (OD600) of 0.8, and protein expression was induced overnight at 17 °C with 1 mM IPTG in an Innova 44® Incubator shaker (New Brunswick Scientific). KDM4E was purified from pelleted cells by resuspending in lysis buffer (50 mM Tris-HCl pH 8.0, 200 mM NaCl, 5 mM β-ME, 10% glycerol, 25 mM imidazole, lysozyme, DNase, and Pierce protease inhibitor cocktail). The cells were lysed by sonication at 60 mA, 10 seconds on followed by 10 seconds off, for a total of 2 minutes. The cell debris was pelleted at 13,000 rpm for 40 minutes. The soluble cell extracts were incubated with Ni-NTA agarose resin (Thermo) according to manufactures protocol. […] Bradford Dye (BioRad) was used to quantify the protein concentration using BSA as a standard. […]

T1 sequence (P83916 21-79 limits assumed): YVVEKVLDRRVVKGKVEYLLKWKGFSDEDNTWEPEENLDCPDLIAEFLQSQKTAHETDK

Row | TΔS (CBX1 chromodomain [1]) [kcal/mol] | ΔG (CBX1 chromodomain [1]) [kcal/mol] | ΔH (CBX1 chromodomain [1]) [kcal/mol] | ΔS (CBX1 chromodomain [1]) [cal/mol/degree] | binding to CBX1 chromodomain (in words) (CBX1 chromodomain [2]) | demethylation by KDM4E (KDM4E) | Substance | methylation by SUV39H2 (in words) (SUV39H2) | methylation by G9a (in words) (G9a) | methylation by DOT1L (in words) (DOT1L) | methylation by METTL20 (in words) (METTL20) | methylation by METTL21A (in words) (METTL21A) | methylation by METTL21C (in words) (METTL21C)
1 | 0 | 0 | 0 | 0 | no detectable interaction |  | GRSGRYGRKGVAINFVK [compound 21, eIF4A3-K374me0 peptide] | also methylated eIF4A3-K374me0; also recorded: monomethylated | also methylated eIF4A3-K374me0; also recorded: di- and trimethylation | failed to methylate | failed to methylate | failed to methylate | failed to methylate
2 |  |  |  |  |  | marginally demethylated only by KDM4E | NTKRESGR[Lys(Me3)]VQSGNINA [compound 15, TCPG-K21me3 peptide] |  |  |  |  |  | 
